Results published in a melting point compilation (Tetko et al.; mined from patent text by program, amines drawn as free bases though some values may be those of a salt).

Compound	melting point [°C]
CN1C(=S)NC(=O)C1=Cc1cc(C(C)(C)C)c(O)c(C(C)(C)C)c1	242 to 244
CC(C)(C)OC(=O)NCC1(CC(N)=O)CCCCC1	123 to 125
COC(=O)C1=C(C)NC(C#N)=C(C(=O)OC)C1c1cccc2c(=O)c(C)c(-c3ccccc3)oc12 (stereo unspecified)	250
O=C(C#Cc1ccc(Cl)cc1Cl)Nc1ccc2oc(CCN3CCCC3)nc2c1	130
CCCNC(=O)C(C)=Cc1ccc2ccn(Cc3ccc(C(=O)NS(=O)(=O)c4ccccc4C)cc3OC)c2c1	224 to 227
COC(=O)c1cccc2[nH]c(-c3ccc(Cl)cc3)c(C=O)c12	221 to 222
CN1CCN(c2cncc(Cl)n2)CC1=O	122 to 123
NCC1Cc2cc(-c3ccccc3)cc(-c3ccccc3Cl)c2O1 (stereo unspecified)	> 250
O=C(O)c1cn(C2CC2)c2nc3cc(N4CCNC(c5cccs5)C4)c(F)cc3cc2c1=O (racemic)	245
CC1(C)OCCC(=NO)c2ccccc2NC1=O	205 to 206
Fc1ccccc1-c1nc2cccnc2s1	119 to 121
CN1Cc2c(-c3nc(CNCc4ccccc4)no3)ncn2-c2ccccc2C1=O	195 to 198
CN(C(=O)CCSC(c1ccccc1)(c1ccccc1)c1ccccc1)c1cn(-c2cccnc2)nc1Cl	62 to 64
O=c1cc[nH]c2c([N+](=O)[O-])cc(Cl)cc12	238 to 241
CCOP(=O)(Cc1ccc(C(N)=O)cc1)OCC	177 to 178
CN1C=CNC1=C(C(=O)C(F)(F)F)C(=O)C(F)(F)F	180
O=C(N=C1CCCN1Cc1ccccc1)Nc1ccc(F)c(Cl)c1	131 to 132
CCCCOC(C(=O)O)c1ccc2c(c1)C(C)(C)CCC2(C)C (racemic)	79 to 82
O=c1oc2c(Br)cccc2cc1S(=O)(=O)Nc1ccc(Br)cc1	206 to 208
CC(C)(C)COc1ccc(NC(=O)c2cnn(CC(F)(F)F)c2)cc1C#N	159 to 160
CC(C)N(CCC(CC(=O)N1CCCCC1)(C(=O)N(C)C)c1ccccc1)C(C)C (stereo unspecified)	142 to 145
CC1(C)Oc2ccc(C(N)=O)cc2C(c2cccn(Cc3ccccc3)c2=O)C1O (stereo unspecified)	230 to 235
COC(=O)c1ccccc1-c1nc(COc2ccc(COc3nn(-c4ccccc4)cc3C=O)cc2OC)c(C)o1	134 to 135
CNC(=O)c1cccnc1C	69 to 72
Cc1c2n(c3ccccc13)C(=O)C(CO)(Cc1ncn(C(c3ccccc3)(c3ccccc3)c3ccccc3)c1C)CC2 (stereo unspecified)	85 to 88
Cc1cc(C2CCCCC2)ccc1C(=O)O	129 to 130

Compound	melting point [°C]
CC(NC(=O)CSC(=O)c1ccccc1)C(=O)NCC(=O)NCC(=O)O (stereo unspecified)	167 to 170
CC(C)(C)C1NN(c2ccc(N)cc2Br)C(=O)O1 (stereo unspecified)	170 to 172
COc1ccc(-c2cc(Cl)cc3c2NC(CN)CO3)c(C)c1 (stereo unspecified)	98
COC(=N)c1ccc(C(=O)O)cn1	284 to 286
CCN(CC)c1ccc(C(=O)C#Cc2ccncn2)cc1	180 to 182
Cc1cc(C(=O)Nc2cc(F)ccc2O)c(Br)s1	210 to 212
Cc1ccc(CC2CNC(=O)O2)cc1 (stereo unspecified)	144 to 146
CC(C)[C@H](NC(=O)OCc1ccccn1)C(=O)O	116 to 118
N#CC(C#N)=C1Sc2nc3ccc(Cl)cc3nc2S1	> 300
NN=C1c2ccccc2-c2ccc(Cl)cc21	139 to 143
O=C(Nc1cccc(S(=O)(=O)NCCc2ccncc2)c1)c1cnn2c(C(F)F)cc(-c3ccc(C(F)(F)F)cc3)nc12	238
COC(=O)CCc1ccc(CNC(=O)[C@@H](CCCNC(N)=N[N+](=O)[O-])NC(=O)C(c2ccccc2)c2ccccc2)cc1	159 to 161
COC(=O)c1ccc(I)c2c1Nc1ccccc1C2	119 to 121
CC(=O)NCCc1cn(S(=O)(=O)c2c(Cl)nc3sccn23)c2ccccc12	150 to 152
CCOC(=O)/C=C/c1ccc(OCCCOCCOC)cc1Oc1ncc(C(F)(F)F)cc1Cl	65 to 67
COc1ccc(CCNC[C@H](O)COc2ccc(-c3nc(Br)c[nH]3)cc2Cl)cc1OC	172 to 174
O=C1CCC2C3Cc4ccc(O)c5c4C2(CC[N+]3([O-])CC2CC2)C1O5 (stereo unspecified)	209 to 211
CC(O)(CSc1ccc(S(=O)(=O)c2ccccc2)cc1)C(F)(F)F (stereo unspecified)	100 to 102
COc1cc2ncnc(N3CCC(C(C)CN4C(C)=CC(C)=NS4(=O)=O)CC3)c2cc1OC (stereo unspecified)	169 to 172
CCCNC(=O)Nc1ccccc1Nc1ccc(C(=O)c2ccccc2)cc1	167 to 169
CC(C)n1nc(-c2sc(C(=O)NCC(N)=O)nc2-c2ccccc2)ccc1=O	248 to 249
COc1ccc(Br)cc1C(=O)C(Br)C(Br)c1ccc(Br)cc1 (stereo unspecified)	158 to 159
COC(=O)c1c(Cl)cc(Cl)cc1NC(=O)CSc1ccc(NC(=O)Cc2ccccc2)cc1	156 to 158
CCOC(=O)NN=C(CC)c1ccncc1	147
Cc1cc(N)c(F)cc1Br	57
CN(C)Cc1ccc(CSCCNC(=S)NC(=O)c2ccccc2)o1	83 to 85

Compound	melting point [°C]
N#CC(C#N)=CNc1ccc(C(N)=O)cn1	215 to 218
Cn1cc(C(=O)O)c(=O)c2c3cc(F)c(N4CCN(c5ccc(F)cc5)CC4)cc3ncc21	346
C=CCOc1ccc(C(C)(C)C)cc1C(C(N)=O)c1ccccc1 (stereo unspecified)	172 to 174
CCOC(=O)CCCC(CNC(=O)OC(C)(C)C)c1ccccc1 (stereo unspecified)	82 to 84
CC(=Cc1ccccc1)c1ccc2c(c1)C(C)(C)CCO2	64 to 65
CSC(=O)c1c(C(F)F)nc(C(F)(F)F)c(C(=O)SC)c1N	160 to 161
CCOC(=O)c1ccc2[nH]cc(CCCI)c2c1	81
OC(Cn1ccnc1)(c1ccc(Cl)cc1)C1(Oc2ccc(Cl)cc2)CC1 (stereo unspecified)	172 to 173
CC(C)n1nc(-c2c(NCc3ccccn3)nc(N)nc2-c2ccc(F)cc2)ccc1=O	210 to 212
Oc1ccc(Cl)cc1CCc1ccccn1	135 to 137
Cc1c(NC(=O)CC(C)(C)C)c(C)c2c(c1-c1ccc(N(C)C)nc1)OCC2c1ccc(C(C)C)cc1 (stereo unspecified)	217 to 220
CC(C(=O)O)c1cc(Cl)c(N2CCOCC2)cc1O (stereo unspecified)	198 to 200
COCCN(CCOC)C(=O)c1n[nH]c2c(=O)[nH]c3cc(Cl)ccc3c(=O)c12	207 to 209
Cc1ccc(C(=S)NN)cc1	140 to 142
COc1ccc2c3cc(C(=O)N4CCCCC4)ccc3n(CC3CCCCC3)c2c1	91 to 92
Cc1c(NC(=O)CC(C)(C)C)c(C)c2c(c1-c1cccs1)OCC2c1ccc(C(C)C)cc1 (stereo unspecified)	155 to 156
CC(C)C(NC(=O)OCc1ccccc1)(C(=O)OCc1ccccc1)C1CO1 (stereo unspecified)	74 to 76
CCC1CC(=O)C2(C)CCC3c4ccc(OC)cc4CCC3C12 (stereo unspecified)	125 to 129
S=C(NC(=Nc1ccccc1)c1ccccc1)Nc1ccccc1	143 to 144
O=C(O)/C=C/c1cccc(OS(=O)(=O)C(F)(F)F)c1	107
Cc1ccc(C2=NC(O)(C(F)(F)F)CN2c2ccc(S(C)(=O)=O)cc2)cc1 (stereo unspecified)	198 to 199
Cc1c(-c2ccccc2)n(-c2ccc(S(C)=O)cc2)c(-c2ccccc2)cc1=O (stereo unspecified)	242 to 244
FC(F)(F)c1cc(Br)cc(C(F)(F)F)n1	92 to 95
CCOC(=O)On1nnc2ccc(Cl)cc21	160 to 162
CS(=O)(=O)c1ccc(-c2[nH]c(Br)c(Cl)c2-c2ccc(F)cc2)cc1	206 to 209
Cc1nc(N2C[C@@H](C)N(Cc3ccc(F)cc3)C2=O)sc1C(=O)NCc1cccnc1	135 to 136

Compound	melting point [°C]
O=C1CCC2=C(c3ccccc3)c3ccccc3C2N1 (stereo unspecified)	213 to 216
COC(C)=CC(=O)NC1CCCCC1	109
CC(=O)N1CCC(N(C)C(=O)c2ccc3nonc3c2)CC1	173 to 175
C[C@H](C(=O)O)c1ccc2cc(OCCCCCCc3ccc(OCc4ccccc4)c(OCc4ccccc4)c3)ccc2c1	80 to 82
CC(=O)NC(C)CCC1CCC(n2cc3ccc(OCC4CC4)cc3n2)CC1 (stereo unspecified)	139 to 140
CCCCCCC(=S)SCCCC	46 to 47
Fc1cc(F)c(-c2c(Cl)nc3nccnc3c2Cl)c(F)c1	139 to 141
CCc1nc2c(N)nc(-c3ccncc3)nc2[nH]1	> 300
CC(C)(C)OC(=O)c1ccccc1CCc1ccccc1N	58 to 59
NS(=O)(=O)c1cccc(-c2cn(-c3cc(-c4ccc(C(F)(F)F)cc4)cc(C(F)(F)F)n3)cn2)c1	> 250
CCCc1nn(C)c2c(=O)[nH]c(-c3cc(S(=O)(=O)N4CCN(C)CC4)ccc3O)nc12	283 to 284
CCCc1nn(C)c2c(=O)[nH]c(-c3cc(Br)ccc3OCC)nc12	157 to 159
CCOC(=O)c1c(CN(CC)CC)nc2sc3c(c2c1-c1ccc(OC)c(OC)c1)CCN(C(=S)Nc1ccccc1)C3	104 to 106
CCOC(=O)c1cc(CC)sc1Nc1cc(F)ccc1N	100 to 101
Clc1cc2nnnn2c2cnccc12	176 to 177
O=C1NC(=O)C(Cc2ccc(S(=O)(=O)CCCc3ccccc3)cc2)S1 (stereo unspecified)	126 to 127
CCN1C(=O)C(C(=O)Nc2ccc(F)cc2F)c2cc(C3(C)OCCO3)ccc21 (stereo unspecified)	166 to 170
CCCc1cc(C(=O)NC(C)(C)C)no1	34 to 37
O=C(O)CCc1cnoc1-c1ccc(Br)cc1	164 to 165
Cc1cc(-c2cc(C(F)(F)F)n3ncc(-c4nc(-c5cnc(N)nc5)no4)c3n2)ccc1C(F)(F)F	272
O=C(O)c1ccc(S(=O)(=O)Nc2cc3c4c(c2)CCCC4CCC3)cc1	266 to 268
COC(=O)CNC(=O)C1CSSC1	73 to 75
O=C(O)COc1c(Br)cc(C(=O)c2c(CCc3ccccc3)oc3ccccc23)cc1Br	163 to 164
